In patent publication US8822448B2, “Pyrazoloquinoline compound” (Astellas Pharma Inc., priority 2010, dated 2014):
pIC50: −log10 of the molar value. Counter-ions that a name gives are not always drawn.

Assays:
PDE9 = PDE9 (Homo sapiens (Human), UniProt O76083); experiment: PDE9-inhibiting activity (SPA enzyme assay); assay type: biochemical; details: IC50 values; cGMP 1 μM substrate, 30° C.; read-out: PDE9 inhibition
Method: The PDE9-inhibiting activity was measured by the following method. That is, to a buffer solution containing tris(hydroxymethyl)aminomethane-hydrochloric acid (40 mM, pH 8.0), magnesium chloride (5 mM), and 2-mercaptoethanol (4 mM) were added cGMP (1 μM) and ^3H-cGMP (0.33 μCi/ml) to give a substrate buffer solution. A test substance solution and an enzyme solution which had been adjusted to an optimal concentration were added thereto to perform a reaction at 30° C. The enzyme reaction was stopped by the addition of Scintillation Proximity Assay (SPA) Beads (Perkin Elmer, USA) containing 5 mM 3-isobutyl-1-methylxanthine (IBMX). For the enzyme activity, the amount of 5′-GMP, which is a reaction degradation product bound to SPA beads, was measured with a TopCount microplate reader (Hewlett Packard, USA). The inhibitory rate was calculated by taking the radioactivity of the control containing no test substance as (A), taking the radioactivity of the blank containing no enzyme as (B), and taking the radioactivity of the test substance as (C), and using the following equation.

PDE9, sequence (O76083 whole entry): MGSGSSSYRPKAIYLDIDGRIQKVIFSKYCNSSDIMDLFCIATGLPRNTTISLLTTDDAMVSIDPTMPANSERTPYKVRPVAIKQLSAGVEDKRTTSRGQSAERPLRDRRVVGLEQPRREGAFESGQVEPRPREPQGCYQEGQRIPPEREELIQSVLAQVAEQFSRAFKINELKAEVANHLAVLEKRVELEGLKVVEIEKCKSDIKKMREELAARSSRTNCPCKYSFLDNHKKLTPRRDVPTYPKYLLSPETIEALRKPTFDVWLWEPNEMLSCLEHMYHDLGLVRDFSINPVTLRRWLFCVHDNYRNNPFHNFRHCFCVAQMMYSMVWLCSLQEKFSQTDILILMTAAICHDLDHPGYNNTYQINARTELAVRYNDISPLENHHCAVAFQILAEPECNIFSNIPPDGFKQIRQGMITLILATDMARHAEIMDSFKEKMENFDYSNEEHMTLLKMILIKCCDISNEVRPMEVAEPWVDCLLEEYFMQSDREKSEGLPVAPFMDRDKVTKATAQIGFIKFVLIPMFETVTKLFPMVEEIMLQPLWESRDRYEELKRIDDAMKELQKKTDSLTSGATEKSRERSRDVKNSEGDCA

Row | Compound | melting point | pIC50 (PDE9)
1 | COc1cc2c(cn1)N(C(=O)c1ccc3c(c1)[nH]c(=O)c1cnn(C4CCOCC4)c13)CC2 [Example 15] | 337 to 340 °C | –
2 | O=C(c1ccc2c(c1)[nH]c(=O)c1cnn(C3CCOCC3)c12)N1CCCC(c2ccccc2)C1 (stereo not shown) [Example 11] | 298 to 301 °C | –
3 | Cc1cc2[nH]c(=O)c3cnn(C4CCOCC4)c3c2cc1C(=O)N1CCN(CCCOC(C)C)CC1 [Example 64] | 122 to 124 °C | –
4 | COCCCCN1CCN(C(=O)c2cc3c(cc2C)[nH]c(=O)c2cnn(CC4CCC4)c23)CC1 [Example 90] | 178 to 180 °C | –
5 | Cc1cc2[nH]c(=O)c3cnn(C4CCOCC4)c3c2cc1C(=O)N1CCN(C)C(c2ccccc2)C1 (stereo not shown) [Example 21] | 253 to 256 °C | –
6 | COCC1CCN(C(=O)c2cc3c(cc2C)[nH]c(=O)c2cnn(C4CCOCC4)c23)CC1.Cl [Example 28] | 253 to 255 °C | 8.04
7 | Cc1nn(C2CCCC2)c2c1c(=O)[nH]c1cc(C(=O)N3CCc4cc(F)ccc43)ccc12 [Example 18] | 321 to 323 °C | –
8 | CCOCC1CN(C(=O)c2cc3c(cc2C)[nH]c(=O)c2cnn(C4CCOCC4)c23)C1 [Example 86] | 226 to 228 °C | 8.48
9 | Cc1cc2[nH]c(=O)c3cnn([C@H]4CCOC4)c3c2cc1C(=O)N1CCC(OC2CC2)CC1 [Example 218] | 197 to 198 °C | 7.77
10 | Cc1cc2[nH]c(=O)c3cnn(C4CCCC4)c3c2cc1C(=O)N1CCN(C2CCOCC2)CC1 [Example 58] | 263 to 265 °C | –
11 | Cc1cc2[nH]c(=O)c3cnn(C4CCOCC4)c3c2cc1C(=O)N1CCC2(CCN(Cc3ccccc3)CC2)CC1 [Example 16] | 221 to 224 °C | 8.04
12 | O=C(c1ccc2c(c1)[nH]c(=O)c1cnn(C3CCOCC3)c12)N1Cc2cccc(F)c2C1 [Example 19] | 312 to 318 °C (dec.) | –
13 | Cc1cc2[nH]c(=O)c3cnn(C4CCOCC4)c3c2cc1C(=O)N1CCOC(c2cccnc2)C1 (stereo not shown) [Example 48] | 266 to 268 °C | –
14 | Cc1cc2[nH]c(=O)c3cnn(C4CCOCC4)c3c2cc1C(=O)N1CCN(C2CCCC2)CC1 [Example 255] | 228 to 230 °C | –
15 | COCCCCN1CCN(C(=O)c2cc3c(cc2C)[nH]c(=O)c2cnn(C4CCCC4)c23)CC1 [Example 67] | 234 to 236 °C | –
16 | Cc1cc2[nH]c(=O)c3cnn(C4CCOCC4)c3c2cc1C(=O)N1CCN(Cc2cccnc2)CC1 (as salt: hydrochloride) [Example 2, 7-methyl-8-{[4-(pyridin-3-ylmethyl)piperazin-1-yl]carbonyl}-1-(tetrahydro-2H-pyran-4-yl)-1,5-dihydro-4H-pyrazolo[4,3-c]quinolin-4-one dihydrochloride] | 259 to 263 °C | –
17 | COCCN1CCN(C(=O)c2cc3c(cc2C)[nH]c(=O)c2cnn(C4CCOCC4)c23)C[C@@H]1c1ccccc1 [Example 47] | 218 to 220 °C | –
18 | O=C(c1ccc2c(c1)[nH]c(=O)c1cnn(C3CCOCC3)c12)N1CCOC(c2ccccc2F)C1 (stereo not shown) [Example 20] | 174 to 176 °C | –
19 | Cc1cc2[nH]c(=O)c3cnn(C4CCOCC4)c3c2cc1C(=O)N1CCN(CCCOC(C)(C)C)CC1 [Example 77] | 238 to 240 °C | –
20 | Cc1cc2[nH]c(=O)c3cnn(C4CCOCC4)c3c2cc1C(=O)N1CCN(CCCc2cccnc2)CC1 [Example 57] | 254 to 256 °C | –
21 | COCCCN1CCN(C(=O)c2cc3c(cc2C)[nH]c(=O)c2cnn(CC4CCC4)c23)CC1 [Example 97] | 186 to 188 °C | –
22 | CCN1CCN(C(=O)c2cc3c(cc2C)[nH]c(=O)c2cnn(C4CCOCC4)c23)CC1c1cccnc1 (stereo not shown) [Example 91] | 272 to 274 °C | –
23 | COCCCCN1C[C@H](C)N(C(=O)c2cc3c(cc2C)[nH]c(=O)c2cnn(CC4CCC4)c23)C[C@H]1C [Example 189] | – | 8.16
24 | Cc1cc2[nH]c(=O)c3cnn(C4CCOCC4)c3c2cc1C(=O)N1CCN(CC(F)(F)F)CC1 [Example 427] | – | 7.70
